Assay results from patent publication US12257287B2, “Glucagon-derived peptide and use thereof” (Tianjin Institute of Pharmaceutical Research Co., Ltd., priority 2018, dated 2025).
Values after ≈ are worked out from the molar mass of the structure shown. Marks after values point to notes of the source that are not given here. Numbered stars: 1 amine (or outer) side, 2 acyl side, 3 side chain; on linkers, the order of the positions; unused ones are H or OH. Square brackets hold non-standard residues; d marks the D form. Side chains are listed from the residue outwards. Peptide text beside a SMILES is read from it. * marks the point of attachment. C18 diacid = O=C(O)CCCCCCCCCCCCCCCCC(=O)*; γGlu = O=C(O)[C@H](CCC(=O)[*:2])N[*:1]; AEEA = NCCOCCOCC(=O)O; Aib = CC(C)(N)C(=O)O

Assays:
[1] = Glucose tolerance test in glucose-loaded DIO mice; format: in vivo; parameters: AUC reduction rate (%), Table 6: concentration or dose not given beside the values
Procedure, shortened: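 DIO mice fasted 16 h received compound subcutaneously; 1 h later, glucose 1 g/kg was given intraperitoneally. Blood glucose measured at 0.5, 1 and 1.5 h; AUC compared with model control group to give blood glucose inhibition rate (%).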

[2] = target: T1, human GLP-1 receptor (Homo sapiens, UniProt P43220); assay: GLP-1 receptor mediated cAMP production in vitro; format: cell-based; conditions: cells transfected with human GLP-1 receptor, 20 min at 37° C., read-out: GLP-1R (nM EC50)
T1 construct: expressed in transfected cells; host or cells: Chinese guinea pig lung cells [sic]
Text: (§1) The medium was removed, the cells were lysed, and cAMP values were detected referring to the detection method described for the assay kit.

[3] = target: T2, GC receptor (Homo sapiens, UniProt P47871); assay: GC receptor mediated cAMP production in vitro (HEK293 cells transfected with GC receptor); format: cell-based; conditions: 20 min at 37° C., read-out: GCGR (nM EC50)
T2 construct: expressed in transfected cells; host or cells: HEK293 cells
Text: as §1

[4] = Effect on body weight of DIO mice after 14 days' administration; format: in vivo, C57BL/6J mice
Procedure, shortened: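 C57BL/6J mice on H10060 high-fat diet for 34 weeks (DIO; 45.0–52.0 g), 5 per group, dosed subcutaneously once daily for 14 days; controls received saline. Body weight change (%) = (initial − last-day weight)/initial weight; positive values mean loss.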

[5] = physchem; format: physicochemical
[6] = Short-term administration: food intake and body weight in DIO mice; format: in vivo; conditions: 30 nmol/kg once every 24 h, twice, − decrease
Procedure, shortened: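 DIO mice (mean body weight 52.5 g), 5 per group, dosed at 30 nmol/kg every 24 h for two doses, in 10 mM PBS pH 7.4; controls received solvent. Food intake and body weight at 48 h expressed as change rate versus the day before dosing.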

[7] = pH 7.5, Solubility, pH 7.5, 10 mM phosphate buffer
[8] = pH 7.5, Solubility, pH 7.5, 20 mM phosphate buffer
[9] = pH 8, Solubility, pH 8.0, 10 mM phosphate buffer
[10] = pH 8, Solubility, pH 8.0, 20 mM phosphate buffer
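For Solubility in this document: compound added at 2 mg per mL of phosphate buffer, with the dissolved amount determined in the supernatant.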
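For Solubility, pH 7.5, 20 mM phosphate buffer in this document: compound added at 2 mg per mL of phosphate buffer, with the dissolved amount determined in the supernatant.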

T2 sequence (P47871 26-477): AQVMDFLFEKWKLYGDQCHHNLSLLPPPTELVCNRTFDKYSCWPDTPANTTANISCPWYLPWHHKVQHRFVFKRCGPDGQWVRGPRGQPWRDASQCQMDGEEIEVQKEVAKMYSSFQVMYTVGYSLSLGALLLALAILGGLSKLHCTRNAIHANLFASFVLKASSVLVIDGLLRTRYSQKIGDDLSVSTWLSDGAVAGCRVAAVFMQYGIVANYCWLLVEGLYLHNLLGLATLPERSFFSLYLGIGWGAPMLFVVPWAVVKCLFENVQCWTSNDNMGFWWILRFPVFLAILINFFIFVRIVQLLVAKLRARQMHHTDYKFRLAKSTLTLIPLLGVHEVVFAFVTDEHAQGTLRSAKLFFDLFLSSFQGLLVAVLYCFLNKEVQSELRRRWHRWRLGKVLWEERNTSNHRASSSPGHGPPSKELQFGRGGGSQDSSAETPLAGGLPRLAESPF
T1 sequence (P43220 24-463): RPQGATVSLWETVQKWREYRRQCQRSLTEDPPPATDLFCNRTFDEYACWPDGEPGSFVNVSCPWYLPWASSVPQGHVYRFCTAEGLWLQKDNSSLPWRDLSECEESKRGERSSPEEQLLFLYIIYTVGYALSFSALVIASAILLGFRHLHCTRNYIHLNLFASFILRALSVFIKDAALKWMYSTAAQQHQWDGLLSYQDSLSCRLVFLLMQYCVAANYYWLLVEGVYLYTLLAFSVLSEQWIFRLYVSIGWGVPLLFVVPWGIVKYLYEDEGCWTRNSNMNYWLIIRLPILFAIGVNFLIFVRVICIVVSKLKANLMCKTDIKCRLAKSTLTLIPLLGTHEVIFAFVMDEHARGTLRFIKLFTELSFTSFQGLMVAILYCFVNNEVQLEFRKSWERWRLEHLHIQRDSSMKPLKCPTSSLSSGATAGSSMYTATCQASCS

EC50 [2]	EC50 [3]	solubility [5, 7]	solubility [5, 8]	solubility [5, 9]	solubility [5, 10]	Solubility, pH 7.5, 20 mM phosphate buffer ([5]; pH 7.5)	SMILES	AUC of blood glucose, Table 6 ([1]; Example 4, DIO mice under glucose load, methods as in Example 3)	AUC reduction rate (%), Table 6 ([1]; Example 4, compared with model control group, DIO mice under glucose load)	body weight change, Table 5 ([4]; Example 4, DIO mice, 14 days' administration, methods as in Example 3, positive values indicate a decrease)	AUC of blood glucose, Table 4 ([1]; DIO mice fasted 16 h, glucose 1 g/kg i.p. 1 h after s.c. administration, 0.5, 1, 1.5 h)	AUC reduction rate (%), Table 4 ([1]; blood glucose inhibition rate compared with model control group, DIO mice, glucose 1 g/kg i.p.)	body weight change rate, Table 3 ([4]; DIO mice, subcutaneous injection every day for 14 days, (initial−last)/initial, positive values indicate a decrease)	glucose tolerance / blood glucose lowering (in words) ([1]; DIO mice, conclusions on Tables 4 and 6)	Rate of change in food intake (%) ([6]; at 48 hours vs day before administration)	Body weight change ([6]; at 48 hours)	body weight reduction (in words) ([4]; DIO mice, 14 days, conclusions on Tables 3 and 5)
0.439 nM	0.052 nM	1390 µg/mL (≈ 321 µM)	980 µg/mL (≈ 226 µM)	> 2000 µg/mL	1620 µg/mL (≈ 374 µM)	–	CC[C@H](C)[C@H](NC(=O)[C@H](Cc1ccccc1)NC(=O)[C@H](CCC(=O)O)NC(=O)[C@H](CCCCN)NC(=O)[C@H](C)NC(=O)[C@H](C)NC(=O)[C@H](CCCNC(=N)N)NC(=O)[C@H](CCC(=O)O)NC(=O)[C@H](CCC(=O)O)NC(=O)[C@H](CC(C)C)NC(=O)[C@H](Cc1ccc(O)cc1)NC(=O)[C@H](CCCCN)NC(=O)[C@H](CO)NC(=O)[C@H](CCCCNC(=O)COCCOCCNC(=O)COCCOCCNC(=O)CC[C@H](NC(=O)CCCCCCCCCCCCCCCCC(=O)O)C(=O)O)NC(=O)[C@H](CC(=O)O)NC(=O)[C@H](CO)NC(=O)[C@@H](NC(=O)[C@H](Cc1ccccc1)NC(=O)[C@@H](NC(=O)CNC(=O)[C@H](CCC(N)=O)NC(=O)C(C)(C)NC(=O)[C@@H](N)Cc1c[nH]cn1)[C@@H](C)O)[C@@H](C)O)C(=O)N[C@@H](C)C(=O)N[C@@H](Cc1c[nH]c2ccccc12)C(=O)N[C@@H](CC(C)C)C(=O)N[C@@H](CCC(=O)O)C(=O)NCC(=O)NCC(=O)N1CCC[C@H]1C(=O)N[C@@H](CO)C(=O)N[C@@H](CO)C(=O)NCC(N)=O [Compound 6] (H-H[Aib]QGTFTSDK([AEEA-AEEA-γGlu-C18 diacid])SKYLEERAAKEFIAWLEGGPSSG-NH2; N-terminus assumed)	8.99 ± 1.46 mmol·h/L	54.7** %	28.32	–	–	–	–	–	–	–
20.7 nM	0.1 nM	60 µg/mL (≈ 14.2 µM)	–	170 µg/mL (≈ 40.3 µM)	90 µg/mL (≈ 21.3 µM)	Insoluble	CCCCCCCCCCCCCCCC(=O)N[C@@H](CCC(=O)N[C@@H](CCC(=O)NCCCC[C@H](NC(=O)[C@H](CC(=O)O)NC(=O)[C@H](CO)NC(=O)[C@@H](NC(=O)[C@H](Cc1ccccc1)NC(=O)[C@@H](NC(=O)CNC(=O)[C@H](CCC(N)=O)NC(=O)C(C)(C)NC(=O)[C@@H](N)Cc1c[nH]cn1)[C@@H](C)O)[C@@H](C)O)C(=O)N[C@@H](CO)C(=O)N[C@@H](CCCCN)C(=O)N[C@@H](Cc1ccc(O)cc1)C(=O)N[C@@H](CC(C)C)C(=O)N[C@@H](CCC(=O)O)C(=O)N[C@@H](CCC(=O)O)C(=O)N[C@@H](CCCNC(=N)N)C(=O)N[C@@H](C)C(=O)N[C@@H](C)C(=O)N[C@@H](CCCCN)C(=O)N[C@@H](CCC(=O)O)C(=O)N[C@@H](Cc1ccccc1)C(=O)N[C@H](C(=O)N[C@@H](C)C(=O)N[C@@H](Cc1c[nH]c2ccccc12)C(=O)N[C@@H](CC(C)C)C(=O)N[C@@H](CCCCN)C(=O)N[C@@H](CCC(=O)O)C(=O)NCC(=O)NCC(=O)N1CCC[C@H]1C(=O)N[C@@H](CO)C(=O)N[C@@H](CO)C(=O)NCC(N)=O)C(C)C)C(=O)O)C(=O)O [Compound 3] (HELM PEPTIDE1{H.[Aib].Q.G.T.F.T.S.D.K.S.K.Y.L.E.E.R.A.A.K.E.F.V.A.W.L.K.E.G.G.P.S.S.G.[am]}|PEPTIDE2{[CCCCCCCCCCCCCCCC(=O)[*:2]].[gGlu].[gGlu]}$PEPTIDE1,PEPTIDE2,10:R3-3:R2$$$V2.0; N-terminus assumed)	–	–	–	8.66 ± 2.14 mmol·h/L	59.1** %	22.0%	–	–	–	–
0.219 nM	0.274 nM	1260 µg/mL (≈ 278 µM)	1080 µg/mL (≈ 238 µM)	1920 µg/mL (≈ 423 µM)	1180 µg/mL (≈ 260 µM)	–	CC(C)C[C@H](NC(=O)[C@H](Cc1c[nH]c2ccccc12)NC(=O)[C@H](CCC(=O)O)NC(=O)[C@@H](NC(=O)[C@H](Cc1ccccc1)NC(=O)[C@H](CCC(=O)O)NC(=O)[C@H](CCCCNC(=O)COCCOCCNC(=O)COCCOCCNC(=O)CC[C@H](NC(=O)CCCCCCCCCCCCCCCCC(=O)O)C(=O)O)NC(=O)[C@H](C)NC(=O)[C@H](CCCNC(=N)N)NC(=O)[C@H](CCCCN)NC(=O)[C@H](CCC(=O)O)NC(=O)[C@H](CCC(=O)O)NC(=O)[C@H](CC(C)C)NC(=O)[C@H](Cc1ccc(O)cc1)NC(=O)[C@H](CCCCN)NC(=O)[C@H](CO)NC(=O)[C@H](Cc1ccc(O)cc1)NC(=O)[C@H](CC(=O)O)NC(=O)[C@H](CO)NC(=O)[C@@H](NC(=O)[C@H](Cc1ccccc1)NC(=O)[C@@H](NC(=O)CNC(=O)[C@H](CCC(N)=O)NC(=O)C(C)(C)NC(=O)[C@@H](N)Cc1c[nH]cn1)[C@@H](C)O)[C@@H](C)O)C(C)C)C(=O)N[C@@H](CCC(=O)O)C(=O)N[C@@H](C)C(=O)NCC(=O)NCC(=O)N1CCC[C@H]1C(=O)N[C@@H](CO)C(=O)N[C@@H](CO)C(=O)NCC(N)=O [Compound 54] (H-H[Aib]QGTFTSDYSKYLEEKRAK([AEEA-AEEA-γGlu-C18 diacid])EFVEWLEAGGPSSG-NH2; N-terminus assumed)	–	–	–	–	–	–	significantly improved glucose tolerance	−35%	-0.9 g	significantly reduced body weight
